Assay results from article PMC7567097, “A nanoluciferase SARS-CoV-2 for rapid neutralization testing and screening of anti-infective drugs for COVID-19” (Nature Communications, 2020).
Like-named read-outs stand apart in the source and are kept apart here.

How the values were obtained:
SARS-CoV-2-Nluc = test: microbe, parasite or virus in culture; format: cell-based
in vitro = settings: human
[1] = data from literature; ref [51]-[68]; cited from earlier work
[2] = human exposures in the clinic, approved dosing schedules; ref [51]-[68]; cited from earlier work
[3] = Severe acute respiratory syndrome coronavirus 2, 48 h
[4] = Severe acute respiratory syndrome coronavirus 2, read-out: EC50 (µM) Replicate 1
[5] = Severe acute respiratory syndrome coronavirus 2, read-out: EC50 (µM) Replicate 2
[6] = read-out: EC50 (µM) Replicate 1
[7] = read-out: EC50 (µM) Replicate 2

Compound	EC50 (SARS-CoV-2-Nluc; [3]) [µM]	EC50 (SARS-CoV-2-Nluc; [4]) [µM]	EC50 (SARS-CoV-2-Nluc; [5]) [µM]	CC50 (in vitro; CC50) [µM]	CC50 (in vitro; CC50 (µM) Replicate 1) [µM]	CC50 (in vitro; CC50 (µM) Replicate 2) [µM]	Plasma protein binding [1] [%]	EC50 (SARS-CoV-2-Nluc; read-out: EC50) [µM]	EC50 (SARS-CoV-2-Nluc; [6]) [µM]	EC50 (SARS-CoV-2-Nluc; [7]) [µM]	CC50 (A549-hACE2 cells) [µM]	Selectivity index (SI) = CC50/EC50 (SARS-CoV-2-Nluc)	Exposure Cmin [2] [nM]	EC50 (SARS-CoV-2-Nluc) [µM]
CC1=CC[C@H](C(=O)N(c2cc(C#CC(C)(C)C)sc2C(=O)O)[C@H]2CC[C@](O)(CO[C@H]3CCOC3)CC2)CC1 [Radalbuvir]	> 10	> 10	> 10	> 50	> 50	> 50	–	–	–	–	–	–	–	–
CC(C)CN(C[C@@H](O)[C@H](Cc1ccccc1)NC(=O)O[C@H]1CCOC1)S(=O)(=O)c1ccc(N)cc1 [Amprenavir]	> 10	> 10	> 10	> 50	> 50	> 50	90	–	–	–	–	–	–	–
Voxilaprevir	–	–	–	–	–	–	–	> 10	> 10	> 10	–	–	–	–
CCC(CC)O[C@@H]1C=C(C(=O)O)C[C@H](N)[C@H]1NC(C)=O [Oseltamivir carboxylate]	> 10	> 10	> 10	> 50	> 50	> 50	–	–	–	–	–	–	–	–
CC#CC(=O)N1CC[C@@H](n2c(=O)n(-c3ccc(Oc4ccccc4)cc3)c3c(N)ncnc32)C1 [Tirabrutinib]	> 10	> 10	> 10	> 50	> 50	> 50	–	–	–	–	–	–	–	–
O=C(NCc1c(F)cc(F)cc1F)c1cn2c(c(O)c1=O)C(=O)N1[C@H]3CC[C@H](C3)O[C@@H]1C2 [Bictegravirt]	–	–	–	–	–	–	–	–	> 10	> 10	> 50	–	–	–
O=C1c2c(O)c(=O)ccn2N([C@@H]2c3ccccc3SCc3c2ccc(F)c3F)[C@@H]2COCCN12 [Baloxavir]	> 10	> 10	> 10	47 ± 1.3	46	47.9	–	–	–	–	–	–	–	–
COC(=O)N[C@H](C(=O)N1CC2(CC2)C[C@H]1c1ncc(-c2ccc3c(c2)C(F)(F)c2cc(-c4ccc5nc([C@@H]6[C@H]7CC[C@H](C7)N6C(=O)[C@@H](NC(=O)OC)C(C)C)[nH]c5c4)ccc2-3)[nH]1)C(C)C [Ledapisvir]	> 10	> 10	> 10	> 50	> 50	> 50	–	–	–	–	–	–	–	–
CC(C)(C)NC(=O)[C@@H]1C[C@@H]2CCCC[C@@H]2CN1C[C@@H](O)[C@H](Cc1ccccc1)NC(=O)[C@H](CC(N)=O)NC(=O)c1ccc2ccccc2n1 [Saquinavir]	8.95 ± 0.31	8.73	9.17	35.1 ± 11.7	43.4	26.8	–	–	–	–	–	3.9	650	–
O=C(Nc1ccc([N+](=O)[O-])cc1Cl)c1cc(Cl)ccc1O [Niclosamide]	0.715 ± 0.332	0.95	0.48	1.28 ± 0.23	1.44	1.12	–	–	–	–	–	1.8	–	–
C[C@@]1(O)[C@H](O)[C@@H](CO)O[C@H]1n1ccc2c(N)ncnc21 [MK-0608]	–	–	–	–	–	–	–	> 10	> 10	> 10	> 50	–	–	–
COC(=O)N[C@H](C(=O)N[C@@H](Cc1ccccc1)[C@@H](O)CN(Cc1ccc(-c2ccccn2)cc1)NC(=O)[C@@H](NC(=O)OC)C(C)(C)C)C(C)(C)C [Atazanavir]	> 10	> 10	> 10	> 50	> 50	> 50	–	–	–	–	–	–	–	–
CC(C)OC(=O)[C@H](C)N[P@](=O)(OC[C@H]1O[C@@](C#N)(c2ccc3c(N)ncnn23)[C@](C)(O)[C@@H]1OC(=O)C(C)C)Oc1ccccc1 [GS-6620]	> 10	> 10	> 10	> 50	> 50	> 50	–	–	–	–	–	–	–	–
CC(C)c1nc(CN(C)C(=O)N[C@H](C(=O)N[C@@H](Cc2ccccc2)C[C@H](O)[C@H](Cc2ccccc2)NC(=O)OCc2cncs2)C(C)C)cs1 [Ritonavir]	> 10	> 10	> 10	–	–	–	–	–	–	–	–	–	–	–
CCOc1nc(N)nc2c1ncn2[C@@H]1O[C@@H]2COP(=O)(OC(C)C)O[C@H]2[C@@]1(C)F (some centres unmarked) [PSI-352938]	> 10	> 10	> 10	> 50	> 50	> 50	–	–	–	–	–	–	–	–
C=CC(=O)N1CCC[C@@H](n2nc(-c3ccc(Oc4ccccc4)cc3)c3c(N)ncnc32)C1 [Ibrutinib]	> 10	–	–	> 50	–	–	–	–	–	–	–	–	–	–
Nc1ccn([C@@H]2O[C@@](CO)(CCl)[C@@H](O)[C@H]2F)c(=O)n1 [ALS-8112]	> 10	> 10	> 10	> 50	> 50	> 50	–	–	–	–	–	–	–	–
CCOC(=O)[C@H](C)N[P@](=O)(CO[C@@H]1C=C(F)[C@H](n2cnc3c(N)ncnc32)O1)Oc1ccccc1 [Rovafovir (GS-9131), Rovafovir]	–	–	–	–	–	–	–	> 10	> 10	> 10	–	–	–	–

Compound	EC50 (SARS-CoV-2-Nluc; [3]) [µM]	EC50 (SARS-CoV-2-Nluc; [4]) [µM]	EC50 (SARS-CoV-2-Nluc; [5]) [µM]	CC50 (in vitro; CC50) [µM]	CC50 (in vitro; CC50 (µM) Replicate 1) [µM]	CC50 (in vitro; CC50 (µM) Replicate 2) [µM]	Plasma protein binding [1] [%]	EC50 (SARS-CoV-2-Nluc; read-out: EC50) [µM]	EC50 (SARS-CoV-2-Nluc; [6]) [µM]	EC50 (SARS-CoV-2-Nluc; [7]) [µM]	CC50 (A549-hACE2 cells) [µM]	Selectivity index (SI) = CC50/EC50 (SARS-CoV-2-Nluc)	Exposure Cmin [2] [nM]	EC50 (SARS-CoV-2-Nluc) [µM]
C=CC(=O)N1CCC[C@@H](n2nc(-c3ccc(Oc4ccccc4)cc3)c3c(N)ncnc32)C1 [Ibrutinibj]	–	–	–	–	–	–	–	–	> 10	> 10	> 50	–	–	–
Cc1cn2nc([C@@H]3CCCCN3C(=O)c3cc(Cl)ccc3NS(C)(=O)=O)cc2nc1N1CC[C@H](N)C1 [Presatovir]	2.53 ± 0.69	3.01	2.04	–	–	–	–	–	–	–	–	–	–	–
Fc1ccccc1-c1nc2ccn(Cc3ccc(-c4ccc(C(F)(F)F)cc4C(F)(F)F)nn3)cc-2n1 [Tegobuvir]	> 10	> 10	> 10	17.9 ± 3.1	20	15.7	–	–	–	–	–	–	–	–
Nc1ccn(C[C@@H](CO)OCP(=O)(O)O)c(=O)n1 [Cidofovir]	> 10	> 10	> 10	> 50	> 50	> 50	–	–	–	–	–	–	–	–
CC(C)CN(C[C@@H](O)[C@H](Cc1ccccc1)NC(=O)O[C@H]1CO[C@H]2OCC[C@H]21)S(=O)(=O)c1ccc(N)cc1 [Darunavir]	> 10	> 10	> 10	> 50	> 50	> 50	–	–	–	–	–	–	–	–
CC(C)c1nc(CN(C)C(=O)N[C@@H](CCN2CCOCC2)C(=O)N[C@H](CC[C@H](Cc2ccccc2)NC(=O)OCc2cncs2)Cc2ccccc2)cs1 [Cobicistat]	2.7	2.6	2.88	47.3 ± 2.5	45.6	49.1	–	–	–	–	–	17.3	–	2.74 ± 0.2
NC(=O)c1nc(F)c[nH]c1=O [Favipiravir (T-705), Favipiravir]	> 10	> 10	> 10	> 50	> 50	> 50	–	–	–	–	–	–	–	–
COC[C@H]1C[C@@H](c2ncc(-c3ccc4c(c3)COc3cc5c(ccc6nc([C@@H]7CC[C@H](C)N7C(=O)[C@@H](NC(=O)OC)C(C)C)[nH]c65)cc3-4)[nH]2)N(C(=O)[C@H](NC(=O)OC)c2ccccc2)C1 [Velpatasvir]	> 10	> 10	> 10	> 50	> 50	> 50	–	–	–	–	–	–	–	–
CC(C)(C)NC(=O)[C@@H]1CN(Cc2cccnc2)CCN1C[C@@H](O)C[C@@H](Cc1ccccc1)C(=O)N[C@H]1c2ccccc2C[C@H]1O [Indinavir]	> 10	> 10	> 10	> 50	> 50	> 50	–	–	–	–	–	–	–	–
COc1ccc2c(O[C@@H]3C[C@H]4C(=O)N[C@]5(P(=O)(O)Cc6c(F)cccc6F)C[C@H]5CCCCCCC[C@H](NC(=O)OC5CCCC5)C(=O)N4C3)cc(-c3csc(NC(C)C)n3)nc2c1Cl [GS-9256]	> 10	> 10	> 10	31.8 ± 10.9	39.5	24.1	–	–	–	–	–	–	–	–
CCOC(=O)/C=C/[C@H](C[C@@H]1CCNC1=O)NC(=O)[C@@H](CC(=O)[C@@H](NC(=O)c1cc(C)on1)C(C)C)Cc1ccc(F)cc1 [Rupintrivir]	1.87 ± 0.47	1.53	2.2	> 50	> 50	> 50	–	–	–	–	–	>26.7	–	–
CC(C)[C@@]1(C(=O)N[C@H]2CC(=O)O[C@]2(O)CF)CC(c2nccc3ccccc23)=NO1 [Nivocasan (GS-9450), Nivocasan]	–	–	–	–	–	–	–	> 10	> 10	> 10	> 50	–	–	–
N#C[C@@]1(c2ccc3c(N)ncnn23)O[C@H](CO)[C@@H](O)[C@H]1O [GS-441524]	0.869 ± 0.289	1.07	0.665	> 50	> 50	> 50	–	–	–	–	–	–	–	–
C=C1[C@H](CO)[C@@H](O)C[C@@H]1n1cnc2c(=O)[nH]c(N)nc21 [Entecavir]	> 10	> 10	> 10	> 50	> 50	> 50	–	–	–	–	–	–	–	–
NC(=O)c1ncn([C@@H]2O[C@H](CO)[C@@H](O)[C@H]2O)n1 [Ribavirin]	> 10	> 10	> 10	> 50	> 50	> 50	–	–	–	–	–	–	–	–
CC(C)OC(=O)[C@H](C)N[P@](=O)(OC[C@H]1O[C@@H](n2ccc(=O)[nH]c2=O)[C@](C)(F)[C@@H]1O)Oc1ccccc1 [Sofosbuvir]	> 10	> 10	> 10	> 50	> 50	> 50	–	–	–	–	–	–	–	–
CC[C@@H]1C[C@]1(NC(=O)[C@@H]1C[C@@H](Oc2cc(-c3csc(NC(C)C)n3)nc3c(Cl)c(OCCN4CCOCC4)ccc23)CN1C(=O)[C@@H](NC(=O)O[C@@H]1C[C@@H]2C[C@@H]2C1)C(C)(C)C)C(=O)O [GS-9451]	> 10	> 10	> 10	> 50	> 50	> 50	–	–	–	–	–	–	–	–
